One data set is described as follows: Toxicity in mice. The following applies: mouse, in vivo, ip, 200 mg/kg. Here is the method: (§1) The toxicity of the products of this invention was determined in mice.
Another data set deals with mice. Description: Toxicity in mice. Here is the method: as §1
Another data set concerns the target T1, aldose reductase (Bos taurus, UniProt P16116).
T1 construct: The enzyme was extracted from beef crystalline lenses; from tissue; host or cells: beef crystalline lenses
The experiment in a line: Inhibition of aldose reductase in vitro. Format: biochemical. The following applies: enzyme from beef crystalline lenses; glyceraldehyde reduction, NADPH spectrophotometry. Here is the method:
The enzyme was extracted from beef crystalline lenses by the method described by S. Hayman and J. H. Kinoshita (J. Biol. Chem. 1965, 240, (2), 877). The percentage of inhibition of the capacity of the enzyme to reduce glyceraldehyde to glycerol under the effect of the product to be tested was determined by spectrophotometric determination of the amount of NADPH reacting according to the method described by Hayman and Kinoshita.

For data set [1], the system named is hypercholesterolemic mice. The experiment in a line: Hypolipidemic activity in hypercholesterolemic mice. In kind it is in vivo. The note with it: 400 mg/kg orally, twice at 20 hour intervals. Here is the method: The products, object of this invention, are useful as hypolipidemic agents. Thus, COR 1983 administered twice in a dose of 400 mg/kg orally at 20 hour intervals in hypercholesterolemic mice caused 24% reduction in cholesterolemia.

Data set [2] concerns neuropathy induced by streptozotocin. Description: Streptozotocin neuropathy in rats (sciatic nerve sorbitol and inositol, glycemia). In kind it is in vivo. The note with it: for inositol level in sciatic nerves / sorbitol level in sciatic nerves: streptozotocin 100 mg/kg i.p.; for inositol level in sciatic nerves: 3rd day, controls 2.174±0.481; for sorbitol level in sciatic nerves: controls 0.819±0.215; for glycemia: streptozotocin, D 3, controls 4.72±0.60. Here is the method:
4 batches of 10 rats weighing about 200 g were treated from D--2 to D+3 with a gummy julep of the product to be tested. At D 0 the animals received an i.p. injection of 100 mg/kg of streptozotocin dissolved in a citrate buffer. The glycemia was determined 24 hours and 3 days after injection of the diabetogenic agent. The rats were sacrificed on the 3rd day after streptozotocin injection and the sciatic nerves were removed to determine the sorbitol and inositol levels. Tested under these condition, COR 1988 caused a reduction of the sorbitol level that went from 0.819±0.215 mg/kg in the controls to 0.608±0.049 mg/kg in animals treated with 50 mg/kg and to 0.482±0.091 mg/kg in animals treated with 100 mg/kg. Also the inositol level went from 2.174±0.481 mg/kg in the controls to 1.593±0.109 mg/kg in the animals treated wtih 25 mg/kg, to 1.430+0.104 mg/kg in the animals treated with 50 mg/kg and to 1.402±0.130 mg/kg in animals treated with 100 mg/kg. The sorbitol and inositol levels after treatment were compared with the control levels by the U test of Mann and Whitney (D. Schwartz, Methodes statistique a 1' usage des medecins et biologists [Statistical method for use by physicians and biologistes], Ed. Flammarion, Paris 1963). The results obtained are significant with p<1%. Glycemia of the control animals was 4.72±0.60g/l on D 3. It went to 3.93±0.82 g/l in animals treated with […] of COR 1988 and to 3.61±0.73 g/l in animals treated with 100 mg/kg. The reduction of glycemia are significant.

A word on the mortality: it is the share of the test organisms that died. A low value points to a weak lethal effect. A word on the IC50: it is the point on the concentration scale where inhibition reaches its midpoint. Read a low IC50 as greater potency in that assay.

As to `O=c1c(OC2CCCCC2)c(-c2ccc(O)c(O)c2)oc2cc(O)cc(O)c12` [COR 1983, 3-cyclohexyloxy-5,7-3',4'-tetrahydroxyflavone], the mortality in “Toxicity in mice” is 10%; in the data set on mice (mice, orally, in water with 6% gum, dose of 1 g/kg) it was “no mortality”; with mice (mouse, in vivo), “did not cause any mortality”. Besides, the IC50 against aldose reductase is 1580 nM. Besides, the reduction in cholesterolemia in data set [1] was 24%.
In turn, `CCOc1c(-c2ccc(O)c(O)c2)oc2cc(O)ccc2c1=O` [COR 1987, 3-Ethoxy-7,3',4'trihydroxyflavone] showed a concentration for half-maximal inhibition (IC50) against aldose reductase of 501 nM.
Consider `CS(=O)(=O)Oc1c(-c2ccc(O)c(O)c2)oc2cc(O)cc(O)c2c1=O` [COR 1988, 3-methanesulfonyloxy-3',4',5,7-tetrahydroxyflavone], for which the mortality result in the data set with mice (mice, orally, in water with 6% gum, up to a dose of 3 g/kg) is on record as “did not cause any mortality”. Also, the “inositol level in sciatic nerves” value in data set [2] (treated with 25 mg/kg) was found to be 1.593 ± 0.109 mg/kg; in data set [2] (treated with 50 mg/kg), 1.430 ± 0.104 mg/kg; in data set [2] (treated with 100 mg/kg), 1.402 ± 0.130 mg/kg. In addition, the “sorbitol level in sciatic nerves” value was determined as 0.608 ± 0.049 mg/kg in data set [2] (treated with 50 mg/kg D-2 to D+3, 3rd day) and 0.482 ± 0.091 mg/kg in data set [2] (treated with 100 mg/kg D-2 to D+3, 3rd day). The glycemia was determined as 3.93 ± 0.82 g/L in data set [2] (treated with 50 mg/kg) and 3.61 ± 0.73 g/L in data set [2] (treated with 100 mg/kg). Also, the IC50 against aldose reductase is 251 nM.
Compound `Cc1ccc(S(=O)(=O)Oc2c(-c3ccc(O)c(O)c3)oc3cc(O)cc(O)c3c2=O)cc1` [COR 1990, 3-Paratoluenesulfonyloxy-5,7,3',4'-tetrahydroxyflavone] showed a half-inhibitory concentration (IC50) at aldose reductase of 3160 nM.

For the origin of these results see patent US4591600A, “3-hydroxyflavones: their preparation and therapeutic application” (Societe Cortial, S.A., priority 1983, dated 1986).
